The record followed here is patent publication US6417233B1, “Ubiguinone-containing composition suitable for promoting enhanced intramitochondrial transportation of ubiguinones and methods of using same” (Sigma-Tau HealthScience S.p.A., priority 1998, dated 2002).

For the test, the system named is normal human photoreceptors cells. The test can be described thus: In vitro study of photoreceptor membranes exposed to oxido-reductive stress. It is filed as cell-based. Particulars: exposure to strong electron donor substances; result in words. An excerpt: The mitochondrial membranes are more basophilic, and they contain more unsaturated lipids than the disc membranes of the outer segments.

As to chlorpromazines, the disc membranes result was “disrupted the disc membranes in dose dependent manner” and the “structure of mitochondrial membranes” value was “slighly altered”.
